By pEC50 is commonly meant the EC50 on a negative log10 scale, so that one unit is a factor of ten.

pEC50: −log10 of the molar value. Counter-ions that a name gives are not always drawn.

human mGlu4 receptor, sequence (Q14833 33-912): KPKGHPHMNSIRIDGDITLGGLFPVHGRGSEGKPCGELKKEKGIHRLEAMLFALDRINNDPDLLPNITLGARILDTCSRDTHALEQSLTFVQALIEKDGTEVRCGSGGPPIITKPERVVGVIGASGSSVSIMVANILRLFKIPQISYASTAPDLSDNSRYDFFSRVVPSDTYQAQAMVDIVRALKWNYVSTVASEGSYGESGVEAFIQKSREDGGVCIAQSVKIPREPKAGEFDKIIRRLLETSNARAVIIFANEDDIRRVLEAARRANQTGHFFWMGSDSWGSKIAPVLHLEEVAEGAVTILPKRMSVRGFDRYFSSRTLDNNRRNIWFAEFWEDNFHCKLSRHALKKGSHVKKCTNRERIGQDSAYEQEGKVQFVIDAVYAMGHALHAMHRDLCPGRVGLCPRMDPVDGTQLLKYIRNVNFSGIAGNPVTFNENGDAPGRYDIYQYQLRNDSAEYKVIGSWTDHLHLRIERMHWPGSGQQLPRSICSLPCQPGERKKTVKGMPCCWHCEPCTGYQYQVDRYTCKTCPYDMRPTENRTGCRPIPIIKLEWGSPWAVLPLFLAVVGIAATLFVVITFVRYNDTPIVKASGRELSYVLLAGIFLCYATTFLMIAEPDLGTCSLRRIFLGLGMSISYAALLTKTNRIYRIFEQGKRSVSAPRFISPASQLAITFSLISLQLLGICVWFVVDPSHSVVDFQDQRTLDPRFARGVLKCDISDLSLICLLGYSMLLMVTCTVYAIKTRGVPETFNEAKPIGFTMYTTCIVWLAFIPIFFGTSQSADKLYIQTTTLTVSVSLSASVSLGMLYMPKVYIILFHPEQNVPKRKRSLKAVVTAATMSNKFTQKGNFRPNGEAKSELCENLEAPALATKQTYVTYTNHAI

The assay concerns the target human mGlu4 receptor (Homo sapiens (Human), UniProt Q14833). Briefly: Intracellular Ca2+ mobilization assay (FLIPR), mGlu4 NAM. The following applies: HEK-293 cells stably transfected with human mGlu4; inhibition of L-AP4 (EC80) response; IC50. The assay is classed as cell-based. The procedure:
2.1) Intracellular Ca^2+ Mobilization Assay (FLIPR)
A monoclonal HEK-293 cell line stably transfected with a cDNA encoding for the human mGlu4 receptor was generated. Cells were cultured according to standard protocols (Freshney, 2000) in Dulbecco's Modified Eagle Medium with high glucose supplemented with 1 mM glutamine, 10% (vol/vol) heat-inactivated bovine calf serum, penicillin/streptomycin, 50 μg/ml hygromycin and 15 μg/ml blasticidin (all cell culture reagents and antibiotics from Invitrogen, Basel, Switzerland).
About 24 hrs before an experiment, 5×10^4 cells/well were seeded in poly-D-lysine coated, black/clear-bottomed 96-well plates. The cells were loaded with 2.5 μM Fluo-4AM in loading buffer (1×HBSS, 20 mM HEPES) for 1 hr at 37° C. and washed five times with loading buffer. The cells were transferred into a Functional Drug Screening System 7000 (Hamamatsu, Paris, France), and 11 half logarithmic serial dilutions of test compound at 37° C. were added and the cells were incubated for 10-30 min. with on-line recording of fluorescence. Following this pre-incubation step, the agonist (2S)-2-amino-4-phosphonobutanoic acid (L-AP4) was added to the cells at a concentration corresponding to EC80 with on-line recording of fluorescence; in order to account for day-to-day variations in the responsiveness of cells, the EC80 of L-AP4 was determined immediately ahead of each experiment by recording of a full dose-response curve of L-AP4.
Responses were measured as peak increase in fluorescence minus basal (i.e. fluorescence without addition of L-AP4), normalized to the maximal stimulatory effect obtained with saturating concentrations of L-AP4. Graphs were plotted with the % maximal stimulatory using XLfit, a curve fitting program that iteratively plots the data using Levenburg Marquardt algorithm. The single site competition analysis equation used was y=A+((B-A)/(1+((x/C)D))), where y is the % maximal stimulatory effect, A is the minimum y, B is the maximum y, C is the IC50, x is the log 10 of the concentration of the competing compound and D is the slope of the curve (the Hill Coefficient). From these curves the IC50 (drug concentration at which 50% of the receptor activation achieved from the addition of L-AP4 in the experiment was inhibited), the Hill coefficient as well as the maximal response in % of the maximal stimulatory effect obtained with saturating concentrations of L-AP4 were calculated (see FIG. 1).
Background: Calcium assays in cells follow changes in intracellular calcium, usually with a dye or a luminescent sensor.
Regarding `O=S(=O)(Nc1c(F)cc(C#Cc2ccccc2)cc1F)c1ccccc1C(F)(F)F` [Example 3, N-[2,6-difluoro-4-(2-phenylethynyl)phenyl]-2-(trifluoromethyl)benzenesulfonamide], the pEC50 was 5.55.

With `COc1cccc(C#Cc2cc(F)c(NS(=O)(=O)c3cc(C)cc(F)c3C)c(F)c2)c1` [Example 47, N-[2,6-difluoro-4-[2-(3-methoxyphenyl)ethynyl]phenyl]-3-fluoro-2,5-dimethyl-benzenesulfonamide], the pEC50 is 5.98. The same measure for `Cc1cccc(C#Cc2cc(F)c(NS(=O)(=O)c3cc(C)cc(F)c3C)c(F)c2)c1` [Example 51, N-[2,6-difluoro-4-[2-(m-tolyl)ethynyl]phenyl]-3-fluoro-2,5-dimethyl-benzenesulfonamide]: 5.85; for `O=S(=O)(Nc1c(F)cc(C#Cc2ccccc2)cc1F)c1cccc(Cl)c1` [Example 8, 3-chloro-N-[2,6-difluoro-4-(2-phenylethynyl)phenyl]benzenesulfonamide]: 5.23; for `COc1ccc(Cl)c(S(=O)(=O)Nc2c(F)cc(C#Cc3ccccc3)cc2F)c1` [Example 18, 2-chloro-N-[2,6-difluoro-4-(2-phenylethynyl)phenyl]-5-methoxy-benzenesulfonamide]: 5.40. The same measure for `Cc1c(Cl)cccc1S(=O)(=O)Nc1c(F)cc(C#Cc2cncc(Cl)c2)cc1F` [Example 55, 3-chloro-N-(4-((5-chloropyridin-3-yl)ethynyl)-2,6-difluorophenyl)-2-methylbenzenesulfonamide]: 5.72; for `Cn1nccc1S(=O)(=O)Nc1c(F)cc(C#Cc2cncc(F)c2)cc1F` [Example 39, N-[2,6-difluoro-4-[2-(5-fluoro-3-pyridyl)ethynyl]phenyl]-2-methyl-pyrazole-3-sulfonamide; 2,2,2-trifluoroacetic acid salt]: 4.98; for `O=S(=O)(Nc1c(F)cc(C#Cc2cncc(F)c2)cc1F)c1ccccc1Cl` [Example 12, 2-chloro-N-[2,6-difluoro-4-[2-(5-fluoro-3-pyridyl)ethynyl]phenyl]benzenesulfonamide]: 5.53. With `CC(C)(C)c1cnn(-c2cc(F)c(NS(=O)(=O)c3cc(Cl)cc(Cl)c3)c(F)c2)c1` [Example 60, N-[4-(4-tert-butylpyrazol-1-yl)-2,6-difluoro-phenyl]-3,5-dichloro-benzenesulfonamide] the figure was 5.17. As to `Cc1ccccc1S(=O)(=O)Nc1c(F)cc(C#Cc2ccccc2)cc1F` [Example 5, N-[2,6-difluoro-4-(2-phenylethynyl)phenyl]-2-methyl-benzenesulfonamide], the pEC50 was 5.43. Take `Cc1cncc(C#Cc2cc(F)c(NS(=O)(=O)c3cccc(Cl)c3C)c(F)c2)c1` [Example 56, 3-chloro-N-[2,6-difluoro-4-[2-(5-methyl-3-pyridyl)ethynyl]phenyl]-2-methyl-benzenesulfonamide; 2,2,2-trifluoroacetic acid]: the pEC50 is 5.83. The same measure for `O=S(=O)(Nc1c(F)cc(C#Cc2ccccc2)cc1F)c1cccc(Cl)c1F` [Example 35, 3-chloro-N-[2,6-difluoro-4-(2-phenylethynyl)phenyl]-2-fluoro-benzenesulfonamide]: 5.79; for `COc1c(Cl)cccc1S(=O)(=O)Nc1c(F)cc(C#Cc2cncc(F)c2)cc1F` [Example 15, 3-chloro-N-[2,6-difluoro-4-[2-(5-fluoro-3-pyridyl)ethynyl]phenyl]-2-methoxy-benzenesulfonamide]: 6.11; for `Cc1cc(F)c(C)c(S(=O)(=O)Nc2c(F)cc(C#Cc3cccc(Cl)c3)cc2F)c1` [Example 48, N-[4-[2-(3-chlorophenyl)ethynyl]-2,6-difluoro-phenyl]-3-fluoro-2,5-dimethyl-benzenesulfonamide]: 5.90.

The molecule `Cc1c(Cl)cccc1S(=O)(=O)Nc1c(F)cc(C#Cc2cncc(F)c2)cc1F` [Example 52, 3-chloro-N-[2,6-difluoro-4-[2-(5-fluoro-3-pyridyl)ethynyl]phenyl]-2-methyl-benzenesulfonamide] had a pEC50 of 6.12. In turn, `COCc1c(Cl)cccc1S(=O)(=O)Nc1c(F)cc(C#Cc2ccccc2)cc1F` [Example 32, 3-chloro-N-[2,6-difluoro-4-(2-phenylethynyl)phenyl]-2-(methoxymethyl)benzenesulfonamide] had a negative logarithm of the EC50 (pEC50) of 5.41. The molecule `Cc1cc(F)c(C)c(S(=O)(=O)Nc2c(F)cc(C#Cc3cccnc3)cc2F)c1` [Example 50, N-[2,6-difluoro-4-[2-(3-pyridyl)ethynyl]phenyl]-3-fluoro-2,5-dimethyl-benzenesulfonamide] had a negative logarithm of the EC50 (pEC50) of 6.56. The molecule `O=S(=O)(Nc1c(F)cc(C#Cc2ccccc2)cc1F)c1ccc(Cl)cc1Cl` [Example 11, 2,4-dichloro-N-[2,6-difluoro-4-(2-phenylethynyl)phenyl]benzenesulfonamide] gave a pEC50 of 4.81.

Consider `O=S(=O)(Nc1c(F)cc(C#Cc2ccccc2)cc1F)c1cccc(C(F)(F)F)c1Cl` [Example 33, 2-chloro-N-[2,6-difluoro-4-(2-phenylethynyl)phenyl]-3-(trifluoromethyl)benzenesulfonamide], for which the pEC50 is 5.68. With `Cc1c(Cl)cc(F)cc1S(=O)(=O)Nc1c(F)cc(C#Cc2cncc(F)c2)cc1F` [Example 53, 3-chloro-N-[2,6-difluoro-4-[2-(5-fluoro-3-pyridyl)ethynyl]phenyl]-5-fluoro-2-methyl-benzenesulfonamide] the figure was 6.28. With `O=S(=O)(Nc1c(F)cc(C#Cc2ccccc2)cc1F)c1cccnc1` [Example 7, N-[2,6-difluoro-4-(2-phenylethynyl)phenyl]pyridine-3-sulfonamide] the figure was 5.33; with `Cn1ccc(S(=O)(=O)Nc2c(F)cc(C#Cc3ccccc3)cc2F)n1` [Example 26, N-[2,6-difluoro-4-(2-phenylethynyl)phenyl]-1-methyl-pyrazole-3-sulfonamide], 4.80; with `Cc1c(F)cccc1S(=O)(=O)Nc1c(F)cc(C#Cc2ccccc2)cc1F` [Example 37, N-[2,6-difluoro-4-(2-phenylethynyl)phenyl]-3-fluoro-2-methyl-benzenesulfonamide], 5.98.

For `Cc1c(F)cccc1S(=O)(=O)Nc1c(F)cc(C#Cc2cncc(F)c2)cc1F` [Example 57, N-[2,6-difluoro-4-[2-(5-fluoro-3-pyridyl)ethynyl]phenyl]-3-fluoro-2-methyl-benzenesulfonamide; 2,2,2-trifluoroacetic acid], the pEC50 was 6.24. The same measure for `Cc1nn(C)cc1S(=O)(=O)Nc1c(F)cc(C#Cc2ccccc2)cc1F` [Example 41, N-[2,6-difluoro-4-(2-phenylethynyl)phenyl]-1,3-dimethyl-pyrazole-4-sulfonamide; 2,2,2-trifluoroacetic acid salt]: 5.03; for `O=S(=O)(Nc1c(F)cc(C#Cc2cccnc2)cc1F)c1ccccc1Cl` [Example 9, 2-chloro-N-[2,6-difluoro-4-[2-(3-pyridyl)ethynyl]phenyl]benzenesulfonamide]: 4.85. The same measure for `Cc1cc(F)c(C)c(S(=O)(=O)Nc2c(F)cc(C#Cc3cccc(O)c3)cc2F)c1` [Example 61, N-[2,6-difluoro-4-[2-(3-hydroxyphenyl)ethynyl]phenyl]-3-fluoro-2,5-dimethyl-benzenesulfonamide]: 6.00; for `O=S(=O)(Nc1c(F)cc(C#Cc2ccccc2)cc1F)c1ccccc1Cl` [Example 1, 2-chloro-N-[2,6-difluoro-4-(2-phenylethynyl)phenyl]benzenesulfonamide]: 5.37; for `O=S(=O)(Nc1c(F)cc(C#Cc2ccccc2)cc1F)c1cccc2ncoc12` [Example 34, N-[2,6-difluoro-4-(2-phenylethynyl)phenyl]-1,3-benzoxazole-7-sulfonamide]: 5.18. With `O=S(=O)(Nc1c(F)cc(C#Cc2ccccc2)cc1F)c1cc(Cl)ccc1Cl` [Example 4, 2,5-dichloro-N-[2,6-difluoro-4-(2-phenylethynyl)phenyl]benzenesulfonamide] the figure was 5.47; with `O=S(=O)(Nc1c(F)cc(C#Cc2ccccc2)cc1F)c1cccc(Cl)c1Cl` [Example 2, 2,3-dichloro-N-[2,6-difluoro-4-(2-phenylethynyl)phenyl]benzenesulfonamide], 5.77. For the molecule `Cc1c(Cl)cccc1S(=O)(=O)Nc1c(F)cc(C#Cc2cccc(F)c2)cc1F` [Example 43, 3-chloro-N-[2,6-difluoro-4-[2-(3-fluorophenyl)ethynyl]phenyl]-2-methyl-benzenesulfonamide], the pEC50 was 5.89.

Values taken from patent publication US12065399B2, “Arylsulfonamide derivatives” (Hoffmann-La Roche Inc., priority 2019, dated 2024).
